# ChEMBL document CHEMBL1201862, “PubChem BioAssay data set” (2004)
#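 Five compound concentrations were applied to cells in 96-well plates for 48 hours; endpoints were derived by simple linear interpolation of the resulting dose-response curve. GI50: concentration for 50% inhibition of growth.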 Calls of active or inactive are those of the source. Cut-off read from the data, not from the text of the source: active = GI50 up to about 1.1 µM and inactive = higher.
# Legend:
# Assay in all cases: growth of human tumour cells (NCI), 48 h
# Hs-578T = test system: Hs-578T
# HCT-116 = test system: HCT-116
# MDA-MB-231 = test system: MDA-MB-231
# HCC 2998 = test system: HCC 2998
# UACC-62 = test system: UACC-62
# 786-0 = test system: 786-0
# MCF7 = test system: MCF7
# HOP-92 = test system: HOP-92
# PC-3 = test system: PC-3
# LOX IMVI = test system: LOX IMVI
# BT-549 = test system: BT-549
# CAKI-1 = test system: CAKI-1
# Malme-3M = test system: Malme-3M
# SF-268 = test system: SF-268
# U-251 = test system: U-251
# SF-539 = test system: SF-539
# SK-MEL-2 = test system: SK-MEL-2
# MOLT-4 = test system: MOLT-4
# KM12 = test system: KM12
# NCI/ADR-RES = test system: NCI/ADR-RES
Structure (SMILES),GI50 (Hs-578T),GI50 (HCT-116),GI50 (MDA-MB-231),GI50 (HCC 2998),GI50 (UACC-62),GI50 (786-0),GI50 (MCF7),GI50 (HOP-92),GI50 (PC-3),GI50 (LOX IMVI),GI50 (BT-549),GI50 (CAKI-1),GI50 (Malme-3M),GI50 (SF-268),GI50 (U-251),GI50 (SF-539),GI50 (SK-MEL-2),GI50 (MOLT-4),GI50 (KM12),GI50 (NCI/ADR-RES)
O=C1OC(c2ccco2)=N/C1=C\c1cccc([N+](=O)[O-])c1,> 100 µM (inactive),> 100 µM (inactive),> 100 µM (inactive),> 100 µM (inactive),> 100 µM (inactive),> 100 µM (inactive),> 100 µM (inactive),> 100 µM (inactive),> 100 µM (inactive),> 100 µM (inactive),> 100 µM (inactive),> 100 µM (inactive),> 100 µM (inactive),> 100 µM (inactive),> 100 µM (inactive),> 100 µM (inactive),> 100 µM (inactive),> 100 µM (inactive),> 100 µM (inactive),
CCOC(=O)N1C=CC(=C2C(=C3C=CN(C(=O)OCC)C=C3)C(=C3C=CN(C(=O)OCC)C=C3)C2=C2C=CN(C(=O)OCC)C=C2)C=C1,16 µM (inactive),11.1 µM (inactive),10.4 µM (inactive),,16.9 µM (inactive),28.6 µM (inactive),35.6 µM (inactive),0.0637 µM (active),17.1 µM (inactive),12.2 µM (inactive),40.5 µM (inactive),16.7 µM (inactive),13.5 µM (inactive),31.5 µM (inactive),13.7 µM (inactive),25 µM (inactive),26.8 µM (inactive),16.9 µM (inactive),22.1 µM (inactive),22.4 µM (inactive)
c1ccc(/N=C(\N2CCOCC2)N(CCN2CCOCC2)c2ccccc2)cc1,> 100 µM (inactive),98.2 µM (inactive),> 100 µM (inactive),> 100 µM (inactive),> 100 µM (inactive),> 100 µM (inactive),> 100 µM (inactive),,> 100 µM (inactive),> 100 µM (inactive),> 100 µM (inactive),> 100 µM (inactive),> 100 µM (inactive),> 100 µM (inactive),> 100 µM (inactive),> 100 µM (inactive),> 100 µM (inactive),> 100 µM (inactive),> 100 µM (inactive),> 10 µM (inactive)
CCCCC/C(=N\c1[nH]cnc1C(N)=O)OCC,> 100 µM (inactive),> 100 µM (inactive),> 100 µM (inactive),> 100 µM (inactive),> 100 µM (inactive),> 100 µM (inactive),> 100 µM (inactive),,> 100 µM (inactive),> 100 µM (inactive),> 100 µM (inactive),> 100 µM (inactive),> 100 µM (inactive),> 100 µM (inactive),> 100 µM (inactive),> 100 µM (inactive),> 100 µM (inactive),> 100 µM (inactive),> 100 µM (inactive),> 100 µM (inactive)
CN(CCC(=O)N1CC(CCl)c2ccc([N+](=O)[O-])cc21)CCC(=O)N1CC(CCl)c2ccc([N+](=O)[O-])cc21 (stereo unspecified),2.85 µM (inactive),12.6 µM (inactive),16.7 µM (inactive),5.79 µM (inactive),12.3 µM (inactive),10.9 µM (inactive),11.4 µM (inactive),,6.52 µM (inactive),7.87 µM (inactive),23.6 µM (inactive),18.7 µM (inactive),10.1 µM (inactive),12.1 µM (inactive),24.2 µM (inactive),14.6 µM (inactive),13.2 µM (inactive),4.25 µM (inactive),4.72 µM (inactive),
COc1ccccc1/N=N/c1c(O)c(S(=O)(=O)O)cc2cc(S(=O)(=O)O)ccc12,> 100 µM (inactive),> 100 µM (inactive),> 100 µM (inactive),,> 100 µM (inactive),> 100 µM (inactive),,> 100 µM (inactive),> 100 µM (inactive),> 100 µM (inactive),> 100 µM (inactive),> 100 µM (inactive),> 100 µM (inactive),> 100 µM (inactive),> 100 µM (inactive),,53.5 µM (inactive),> 100 µM (inactive),> 100 µM (inactive),> 100 µM (inactive)
Nc1n[n+]([O-])c2cc([N+](=O)[O-])ccc2[n+]1[O-],11 µM (inactive),2.9 µM (inactive),4.99 µM (inactive),,2.49 µM (inactive),4.63 µM (inactive),3.36 µM (inactive),,2.19 µM (inactive),1.38 µM (inactive),18.1 µM (inactive),4.33 µM (inactive),,,4.61 µM (inactive),4.74 µM (inactive),15 µM (inactive),0.787 µM (active),,4.36 µM (inactive)
